Experimental findings from ChEMBL document CHEMBL5291721, “A preclinical secondary pharmacology resource illuminates target-adverse drug reaction associations of marketed drugs” (Nat Commun, 2023) are described below.

In this experiment the target is T1, Alpha-1A adrenergic receptor (Homo sapiens, UniProt P35348).
T1 sequence (P35348 whole entry): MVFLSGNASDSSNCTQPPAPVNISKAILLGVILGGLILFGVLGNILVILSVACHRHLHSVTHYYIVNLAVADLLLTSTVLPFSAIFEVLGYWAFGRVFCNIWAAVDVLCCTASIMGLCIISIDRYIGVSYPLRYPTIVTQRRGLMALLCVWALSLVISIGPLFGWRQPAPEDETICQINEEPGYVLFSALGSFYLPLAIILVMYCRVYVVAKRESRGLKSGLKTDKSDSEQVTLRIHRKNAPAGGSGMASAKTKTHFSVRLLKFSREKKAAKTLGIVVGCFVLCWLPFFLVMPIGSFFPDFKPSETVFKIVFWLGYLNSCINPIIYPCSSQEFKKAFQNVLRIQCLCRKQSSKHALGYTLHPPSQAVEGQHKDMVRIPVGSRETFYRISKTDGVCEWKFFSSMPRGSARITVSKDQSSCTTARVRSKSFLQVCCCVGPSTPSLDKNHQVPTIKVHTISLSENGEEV

For orientation: AC50 means the midpoint of the concentration-response curve, whichever way the signal moves. Lower therefore signals activity at low concentration.
Also: assay procedure not described here.

Take HYDROXOCOBALAMIN: the AC50 was more than 30 µM.
